Experiment [1] in a line: Suppression of anxiety (punished licking, conflict test) in the adult male rat. Type of experiment: in vivo, male rats. The method, then:
The anxiolytic activity of selected compounds of the invention was assessed by determining their ability to release (disinhibit) behavior that had been suppressed by punishment (Vogel, J. R. et al. Psychopharmacology 1971, 21, 1). Male rats were deprived of water for 48 hours and were deprived of food for 24 hours prior to testing. After the first 24 hours of water deprivation, they were placed in the conflict chamber for a training period; wherein, they were allowed 200 unpunished licks from a bottle containing tap water. The experiment was run the next day. At the expected time of peak activity, the animals were placed in the chamber and allowed access to tap water. […] Their first lick initiates a 3-min test session. Subsequently,every 20th lick was punished by a 0.2-s shock delivered via the stainless-steel drinking-tube. Vehicle-treated control animals generally were willing to accept a median number of 3 to 8 shocks per test session. […] The Wilcoxon rank-sum test (Mann-WhitneyU-test) was used to test for an increase (p<0.05, 1-tailed) in the median number of shocks in drug-treated groups, compared to a concurrently run vehicle-treated group. The biological assay is considered to be valid if the effects of a known anxiolytic (positive control) are detected, within the same experiment. A compound was considered active if there is a significant difference in the median number of shocks tolerated between the drug-treated group and the control group. The MED was defined as the minimum dose of the drug-treatment as analyzed using the Wilcoxon rank-sum test (SAS; Statistical Analysis System, version 5.16). If the MED value is greater than 10, an active dose of the compound being tested had not been determined.

The nature of experiment [2]: Suppression of metrazol-induced convulsions. It is filed as in vivo, male CD1 mice. The settings on record: mice; for ED50: Mus musculus, 0.5 h. The protocol:
Selected compounds of the invention were tested for their ability to reduce metrazol-induced convulsions in mice (Swinyard, E. A. J. Am. Pharm Assoc. 1949, 38, 201). Male CD1 mice, were fasted at least 16 hours, were divided into equal groups and test compounds or vehicle were administered parenterally. Water was not withheld except during the period of observations. At the time of suspected peak activity, anti-pentylenetetrazol (anti-metrazol) activity was evaluated by the subcutaneous administration of the CD90 dose of metrazol (the dose of metrazol was determined from the dose-response curve producing clonic convulsions in 90% of animals that received the corresponding vehicle for this experiment). Metrazol was dissolved in 0.9% sodium chloride solution, and its dose volume was 10 ml/kg. Animals were housed individually for observation of clonic convulsions, tonic convulsions and death for a period of 30 min. Test compounds that blocked the clonic seizure component of the convulsion in at least 50% of the animals were considered active. The biological assay was considered to be valid if the effects of a known anticonvulsant (positive control) were detected, within the same experiment. Activity was reported as percent reduction of clonic convulsions from the vehicle group. The ED50 values of active compounds were calculated by the method of probits (Finney, D. J. 1971. Probit Analysis. London: Cambridge University Press) and are listed in Tables 1 to 5.

The target of experiment [3] is benzodiazepine site of the GABA-A receptor. Description: Benzodiazepine Receptor Binding Assay (inhibition of 3H-flunitrazepam binding). The settings on record: ca. 3 nM 3H-flunitrazepam.
Setting [4] is: Table 1, ip, minimum effective dose, >10 = active dose not determined, read-out: Conflict (ip) MED.
[5] abbreviates: Table 1, ip, clonic convulsions after sc CD90 metrazol, >30 = active dose not determined, read-out: Metrazol (ip) ED50.
The mark [6] stands for this setting: Table 1, 25° C., 10-20 min, >10,000 = not active.
The mark [7] stands for this setting: Table 3, minimum effective dose, read-out: Conflict MED.
Setting [8] is: Table 3, parenteral, clonic convulsions, read-out: Antimetrazol ED50.

Like-named read-outs stand apart in the source and are kept apart here. Some results are limits rather than exact numbers.

Take `O=C1CCN2C(=C1C(=O)Nc1ccncc1)Nc1cc(F)ccc12` [compound 106]: the minimal effective dose in experiment [1] (setting [4]) worked out at 3 mg/kg. In addition, the 50% effective dose (ED50) in experiment [2] (setting [5]) came to 3 mg/kg. The IC50 in experiment [3] (setting [6]) was 42 nM.
For the compound `O=C1CCN2C(=C1C(=O)Nc1ccc(F)cc1F)Nc1cc(F)ccc12` [compound 111], the IC50 in experiment [3] (setting [6]) was 3.3 nM.
As for `O=C1CCN2C(=C1C(=O)Nc1nnc(C(F)(F)F)s1)Nc1ccccc12` [compound 74], the minimal effective dose in experiment [1] (setting [4]) was over 10 mg/kg. In addition, in experiment [2] (setting [5]), the median effective dose (ED50) was 10 mg/kg. In addition, the IC50 in experiment [3] (setting [6]) was 10000 nM.
Take `O=C1CCN2C(=C1C(=O)Nc1ncc(C(F)(F)F)cc1C(F)(F)F)Nc1ccccc12` [compound 78]: the minimal effective dose in experiment [1] (setting [4]) was 10 mg/kg. Besides, the ED50 in experiment [2] (setting [5]) was over 10 mg/kg. This compound gave an IC50 in experiment [3] (setting [6]) of over 10000 nM.
`O=C1CCN2C(=C1C(=O)Nc1ccncn1)Nc1ccccc12` [compound 39]: the minimal effective dose in experiment [1] (setting [4]) is 10 mg/kg. For the same compound, in experiment [2] (setting [5]), the ED50 was over 10 mg/kg. The compound further registered an IC50 in experiment [3] (setting [6]) of 480 nM.
Take `O=C1CCN2C(=C1C(=O)Nc1c(F)cc(F)cc1F)Nc1ccccc12` [compound 93]: in experiment [1] (setting [4]), the minimal effective dose was determined as 3 mg/kg. In addition, in experiment [2] (setting [5]), the ED50 was determined as 1 mg/kg. In addition, the IC50 in experiment [3] (setting [6]) was 15 nM.
For “Phenyl-1,2-dihydro-3-hydroxypyrido(1,2-a)benzimidazole-4-carboxthiolate [CP 119]”, in experiment [1] (Table 1, ip, minimum effective dose, >10 = active dose not determined), the “Conflict (ip) MED” value is 10 mg/kg. In experiment [2] (Table 1, ip, clonic convulsions after sc CD90 metrazol, >30 = active dose not determined, 30 min), the “Metrazol (ip) ED50” value was found to be 30 mg/kg. The compound also came in with a half-inhibitory concentration (IC50) in experiment [3] (setting [6]) of 43 nM.
Regarding `O=C1CCN2C(=C1C(=O)Nc1ccc(F)c(F)c1F)Nc1ccccc12` [compound 96], the minimal effective dose in experiment [1] (setting [4]) was over 10 mg/kg. The ED50 in experiment [2] (setting [5]) was over 10 mg/kg. Further, in experiment [3] (setting [6]), the IC50 came out at 1500 nM.
For `O=C1CCN2C(=C1C(=O)Nc1ccc3[nH]ccc3c1)Nc1ccccc12` [compound 30], the minimal effective dose in experiment [1] (setting [4]) is over 10 mg/kg. In experiment [2] (setting [5]), the ED50 was over 30 mg/kg. In addition, the IC50 in experiment [3] (setting [6]) turned out to be 530 nM.
As for `CCCN1C2=C(C(=O)Nc3ccccc3)C(=O)CCN2c2ccccc21` [compound 136], the minimal effective dose in experiment [1] (setting [7]) turned out to be 10 mg/kg. Moreover, in experiment [2] (setting [8]), the ED50 amounted to 1 mg/kg. Besides, in experiment [3] (Table 3), the concentration for half-maximal inhibition (IC50) was 2.5 nM.
Consider `Nc1ccccc1NC(=O)C1=C2Nc3ccccc3N2CCC1=O` [compound 47], for which, in experiment [1] (setting [4]), the minimal effective dose turned out to be 10 mg/kg. Further, the ED50 in experiment [2] (setting [5]) was 3 mg/kg. The compound further gave an IC50 in experiment [3] (setting [6]) of 50 nM.
Taken in the same sequence, the figures for `O=C1CCN2C(=C1C(=O)Nc1cccc(C(F)(F)F)c1)Nc1ccccc12` [compound 15] were over 10 mg/kg, over 10 mg/kg and 300 nM.
Take `COc1ccc2c(c1)NC1=C(C(=O)Nc3ccccc3)C(=O)CCN12` [compound 12]: the minimal effective dose in experiment [1] (setting [4]) was over 10 mg/kg. Besides, the median effective dose (ED50) in experiment [2] (setting [5]) was found to be 3 mg/kg. The concentration for half-maximal inhibition (IC50) in experiment [3] (setting [6]) was determined as 40 nM.
As for `O=C1CCN2C(=C1C(=O)Nc1c(Cl)cccc1Cl)Nc1cc(F)ccc12` [compound 112], the 50% inhibitory concentration (IC50) in experiment [3] (setting [6]) was 100 nM.
As to `O=C1CCCN2C(=C1C(=O)Nc1ccncc1)N(Cc1ccccc1)c1ccccc12` [compound 154], the median effective dose (ED50) in experiment [2] (Table 5, parenteral, clonic convulsions, read-out: Antimetrazol ED50) is over 10 mg/kg. In experiment [3] (Table 5), this compound gave an IC50 of 6700 nM.
On to `O=C1CCN2C(=C1C(=O)Nc1ccncc1F)Nc1cc(F)ccc12` [compound 110], for which, in experiment [3] (setting [6]), the half-maximal inhibitory concentration (IC50) was 12 nM.
On to `O=C1CCN2C(=C1C(=O)Nc1cccnc1F)Nc1ccccc12` [compound 116], for which the minimal effective dose in experiment [1] (setting [4]) was over 10 mg/kg. In addition, the 50% effective dose (ED50) in experiment [2] (setting [5]) is 2 mg/kg.
Taken in the same sequence, the figures for `O=C1CCN2C(=C1C(=O)Nc1c(Cl)cc(Cl)cc1Cl)Nc1ccccc12` [compound 101] were over 10 mg/kg and over 10 mg/kg.
Regarding `CC1CN2C(=C(C(=O)Nc3ccccc3F)C1=O)N(C)c1ccccc12` (stereo not shown) [compound 132], the minimal effective dose in experiment [1] (setting [7]) is under 10 mg/kg. Besides, the ED50 in experiment [2] (setting [8]) came to 1 mg/kg.
The compound `O=C1CCN2C(=C1C(=O)Nc1ccccc1)Nc1cc(C(F)(F)F)ccc12` [compound 16] had an IC50 in experiment [3] (setting [6]) of 960 nM.
For `O=C1CCN2C(=C1C(=O)Oc1ccccc1)Nc1ccccc12` [compound 118], in experiment [2] (Table 2, ip, clonic convulsions, read-out: Antimetrazol (ip) ED50), the median effective dose (ED50) is 3 mg/kg. Further, in experiment [3] (Table 2), the IC50 stood at 200 nM.
As for `CN(C)c1ccc(NC(=O)C2=C3Nc4ccccc4N3CCC2=O)c(F)c1` [compound 86], the ED50 in experiment [2] (setting [5]) was 1 mg/kg. In experiment [3] (setting [6]), this compound came in with a half-maximal inhibitory concentration (IC50) of 120 nM.

For orientation: ED50 means the dose at which the effect has come halfway, by size or by number of responders. By IC50 is commonly meant the concentration that gives 50% inhibition.

Source of the values: patent publication US6218384A, “3-Oxo-pyrido(1,2-a)benzimidazole-4-carboxyl and 4-oxo-azepino(1,2-a)benzimidazole-5-carboxyl derivatives useful in treating central nervous system disorders” (Ortho-McNeil Pharmaceutical, Inc., priority 1997, dated 2001).
